Measured values taken from US20130150317A1, “COMPOUNDS FOR THE TREATMENT OF RENAL CELL CARCINOMA” (Myrovlytis Technology Ventures Limited, priority 2010, published 2013).
Entries after “also recorded” stand apart in the source; their conditions may differ. Where two headings read alike, the source gives them in different places.

How the values were obtained:
UOK257-FLCN^+ cells = assay: SRB growth inhibition assay in UOK257-FLCN^+ cells; assay type: cell-based, human; conditions: 72 hours continuous exposure, mean ± SE (n), read-out: GI50 nM in UOK-FLCN^+
Source text: (§1) Human renal carcinoma of BHD origin cells UOK-257 (UOK-FLCN^−) and FLCN transfected UOK-257 cells UOK-FLCN^+ (Yang et al Cancer Genet Cytogenet. 2008 Jan. 15; 180(2):100-9) were provided by Dr Marston Linehan and Dr. Laura S Schmidt (Urologic Oncology Branch, Centre for Cancer Research, National Cancer Institute, National Institutes of Health, Bethesda, Md. 20892, USA). UOK-257 is the only RCC cell line that has been derived from a patient with BHD and harbours a germline FLCN frameshift mutation (c.1285dupC) (predicted, in the absence of nonsense mediated mRNA decay, to lead to premature protein truncation (p.His429ProfsX27) (Yang et al., Cancer Genet Cytogenet, 2008 Jan. 15; 180(2):100-9). We are not aware of any sporadic RCC cell lines with homozygous FLCN inactivation. FTC-133 cells were purchased from ECACC (Salisbury, United Kingdom). These cells are a non-RCC cell line derived from human thyroid carcinoma. 786-0 cells were available from the author's lab (Clifford et al., Hum Mol Genet. 2001 May 1; 10(10):1029-38). 786-O is a kidney cancer cell line that harbours an inactivating VHL gene mutation (c.311delG p.G104fs*55). All cell lines were cultured in DMEM with supplement of 10% foetal bovine serum except for FTC-133 cells which were incubated in medium with DMEM and Hens (1:1).
(§2) The sensitivity of the cell lines to drug-induced cell growth inhibition was determined using the sulphorhodamine B assay (SRB) as described by Lu et al., Clin Cancer Res. 2001:7:2114-23. Briefly, adherent exponentially growing cells were seeded into 96-well plates at 3-5×10^3 cells/100 μl/well. After 20-24 h at 37° C., drugs were added at the appropriate drug concentrations to the wells (final DMSO conc. 1%) as indicated in the Results section. […] The absorbance per well was measured at 570 nm on a Victor X3 Multilabel Plate Reader (PerkinElmor, Beaconsfield, United Kingdom).
UOK-257 is the only RCC cell line that has been derived from a patient with BHD and harbours a germline FLCN frameshift mutation (c.1285dupC) (predicted, in the absence of nonsense mediated mRNA decay, to lead to premature protein truncation (p.His429ProfsX27) (Yang et al Cancer Genet Cytogenet, 2008 Jan. 15; 180(2):100-9). Both UOK257-FLCN^− and UOK257-FLCN^+ cells were examined for their sensitivities to growth inhibition induced by 15 compounds selected from the COMPARE analysis. Various concentrations of compounds were introduced into the cells 24 hrs after seeding, incubation was continued for 72 hours and growth inhibition was assessed using the suiphorhodamine B (SRB) assay. GI50 values, defined as the concentration of compounds required to inhibit growth by 50%, were then calculated. The ratio of GI50 value from UOK257-FLCN^+ and UOK257-FLCN^− were calculated and used as an indicator for the sensitivity to FLCN mutant cells.

[1] = system: VHL-deficient cells in ccRCC cell lines; conditions: Sutphin et al., Cancer Res 2007, cited from earlier work
UOK257-FLCN^− cells = assay: SRB growth inhibition assay in UOK257-FLCN^− cells; assay type: cell-based, human; conditions: for GI50: SRB assay, 72 hours continuous exposure, mean ± SE (n), read-out: GI50 nM in UOK-FLCN^−; for GI50 Ratio of UOK-FLCN^+/UOK-FLCN^−: ratio>1 = more inhibitory to FLCN^− cells
Source text: as §1
as §2, with “μl/well.” for “μl/well. After 20-24 h at 37° C., drugs were added at the appropriate drug concentrations to the wells (final DMSO conc. 1%) as indicated in the Results section.”
GI50 values, defined as the concentration of compounds required to inhibit growth by 50%, were then calculated. The ratio of GI50 value from UOK257-FLCN^+ and UOK257-FLCN^− were calculated and used as an indicator for the sensitivity to FLCN mutant cells.

[2] = system: caspase3/7 activity in UOK257-FLCN^− and UOK257-FLCN^+ cells; assay: Caspase-Glo 3/7 assay in UOK-257 cells with/without FLCN expression; assay type: cell-based, human; conditions: 48 hrs, all three concentrations
Method: The ability to induce caspase 3/7 activation after exposure to compounds was measured by Caspase-Glo 3/7 Assay (Promega, Southampton, United Kingdom) according to manufacturer's instruction. The cells were seeded and dosed as described in growth inhibition assay. At the end of incubation, 70 μl of medium was removed and 30 μl of assay reagent was added to the remaining medium. Additional one hour incubation with shaking was carried out at room temperature. The resultant luminescent light was measured in a Victor X3 Multilabel Plate Reader (PerkinElmer, Beaconsfield, United Kingdom). Cell viability after compound exposure was determined by CellTiter-Blue Cell Viability Assay (Promega, Southampton, the United Kingdom) according to manufacturer's instruction. At the end of drug treatment, 20 μl of reagent was added to the medium in 96 wells and the cells were incubated for additional 4 hours. The cell viability was measured by fluorescence with a 570 nm excitation and 590 nm emission set in a Victor X3 Multilabel Plate Reader (PerkinElmer, Beaconsfield, United Kingdom).
After 48 hrs incubation, with three concentration ranges for each drug, the capase3/7 activity was detected by amount of luminescence for each cell line. The ratio of caspase3/7 activity from UOK257-FLCN^− and UOK257-FLCN^+ were calculated and used as indicators for the ability of the individual compound to induce caspase3/7 activity to FLCN mutant cells.
These ratios were calculated and used as indicators for the sensitivity to mutant FLCN cells.

Compound | GI50 (UOK257-FLCN^− cells; Homo sapiens) | GI50 Ratio of UOK-FLCN^+/UOK-FLCN^− (UOK257-FLCN^− cells) | GI50 (UOK257-FLCN^+ cells) | GI50 (UOK257-FLCN^− cells) | also measured
CO[C@@H]1[C@H](O)C[C@@H](O[C@@H]2C[C@H](Oc3cc4cc5c(c(O)c4c(O)c3C)C(=O)[C@@H](O[C@H]3C[C@@H](O[C@H]4C[C@@H](O[C@H]6C[C@](C)(O)[C@@H](OC(C)=O)[C@H](C)O6)[C@H](O)[C@@H](C)O4)[C@H](O)[C@@H](C)O3)[C@H]([C@H](OC)C(=O)[C@@H](O)[C@@H](C)O)C5)O[C@H](C)[C@@H]2OC(C)=O)O[C@@H]1C [chromomycin A3] | 37.4 ± 6.9 nM | 0.88 |  |  | GI50 (UOK257-FLCN^+ cells; Homo sapiens, 72 h): 33 ± 5.7 nM; differential toxicity to VHL-deficient relative to VHL-positive RCC cell lines (in words) ([1]; listed as ChA3): discriminate killing of VHL-deficient cells; differential toxicity to VHL-deficient relative to VHL-positive RCC cell lines (in words) ([1]; listed as Chromomycin A3 (ChA3)): differential toxicity; differential growth inhibitory activity in FLCN-deficient and FLCN-positive UOK-257 cell lines (in words) (UOK257-FLCN^− cells; listed as ChA3): did not find any differences; also recorded: does not demonstrate selective toxicity; also recorded: does not show differential growth inhibitory activity
bruceantin |  | 0.64 | 43.6 ± 5.1 nM | 68.4 ± 14.9 nM | ratio of caspase3/7 activity from UOK257-FLCN^− and UOK257-FLCN^+ [2]: < 1
CC(=O)O[C@H]1C(=O)[C@@]2(C)[C@H]([C@H](OC(=O)c3ccccc3)[C@]3(O)C[C@H](OC(=O)[C@H](O)[C@@H](NC(=O)c4ccccc4)c4ccccc4)C(C)=C1C3(C)C)[C@]1(OC(C)=O)CO[C@@H]1C[C@@H]2O [paclitaxel (taxol), paclitaxel] | 75.5 ± 9.2 nM | 6.81 |  |  | GI50 (UOK257-FLCN^+ cells; Homo sapiens): 514 ± 86 nM; fold difference in the GI50 values between FLCN-null and FLCN-wild type UOK257 cells (UOK257-FLCN^− cells; GI50 higher in FLCN-wild type cells (FLCN-null more sensitive)): ~7 fold
COc1cccc2c1C(=O)c1c(O)c3c(c(O)c1C2=O)C[C@@](O)(C(=O)CO)C[C@@H]3O[C@H]1C[C@H](N2CCOCC2C#N)[C@H](O)[C@H](C)O1 (stereo partly drawn) [cyanomorpholino-ADR] |  | 0.16 | 0.62 ± 0.16 nM | 3.79 ± 0.39 nM | fold difference in the GI50 values between UOK257-FLCN^+ and UOK257-FLCN^− cells (UOK257-FLCN^− cells; GI50 higher in FLCN^− cells (FLCN^− less sensitive)): 6 fold
CS[C@H]1SC[C@H]2C(=O)N(C)[C@@H](C(C)C)C(=O)OC[C@@H](NC(=O)c3cnc4ccccc4n3)C(=O)N[C@@H](C)C(=O)N(C)[C@@H]1C(=O)N(C)[C@@H](C(C)C)C(=O)OC[C@@H](NC(=O)c1cnc3ccccc3n1)C(=O)N[C@@H](C)C(=O)N2C [echinomycin] | 5.72 ± 0.22 nM | 0.71 |  |  | GI50 (UOK257-FLCN^+ cells; Homo sapiens): 4.03 ± 0.89 nM
COc1cccc2c1C(=O)c1c(O)c3c(c(O)c1C2=O)C[C@@](O)(C(=O)CO)C[C@@H]3O[C@H]1C[C@H](N2CCOCC2)[C@H](O)[C@H](C)O1 [morpholino-ADR, Morpholino-ADR] |  | 0.97 | 0.44 ± 0.1 nM | 0.45 ± 0.03 nM | 
CC[C@H](C)[C@H]1NC(=O)[C@@H](NC(=O)[C@@H](CC(C)C)N(C)C(=O)[C@@H]2CCCN2C(=O)C(C)O)[C@@H](C)OC(=O)[C@H](Cc2ccc(OC)cc2)N(C)C(=O)[C@@H]2CCCN2C(=O)[C@H](CC(C)C)NC(=O)[C@@H](C)C(=O)[C@H](C(C)C)OC(=O)C[C@@H]1O (stereo partly drawn) [didemnin B] |  | 0.82 | 6.53 ± 1.78 nM | 7.94 ± 1.66 nM | 
